Measured values taken from ChEMBL document CHEMBL3044635, “Effect of propiconazole and difenoconazole on the control of anthracnose of chilli fruits caused by Colletotrichum capsici” (Crop Prot, 2006).
Converted amounts (≈) assume the structure as drawn.

What was measured:
Format in all cases: functional
Colletotrichum truncatum [1] = test: Fungicidal activity against Colletotrichum capsici assessed as linear growth at 0.5 ug/ml incubated 16 hr photoperiod for 20 days (reference value: 90 mm)
Colletotrichum truncatum [2] = test: Fungicidal activity against Colletotrichum capsici assessed as sporulation at 50 ug/ml incubated 16 hr photoperiod for 20 days by haemocytometer (reference value: 0.081 x 10^6 ml'-1)
Colletotrichum truncatum [3] = test: Fungicidal activity against Colletotrichum capsici infected chilli plant assessed as percent disease index at 0.05% applied as spray on day 10 post inoculation and twice every 20 days measured on day 155 post sowing in green house conditions (reference value: 62.5 to 68.6%)
Colletotrichum truncatum [4] = test: Fungicidal activity against Colletotrichum capsici assessed as sporulation at 25 ug/ml incubated 16 hr photoperiod for 20 days by haemocytometer (reference value: 0.081 x 10^6 ml'-1)
Colletotrichum truncatum [5] = test: Fungicidal activity against Colletotrichum capsici assessed as sporulation at 5 ug/ml incubated 16 hr photoperiod for 20 days by haemocytometer (reference value: 0.081 x 10^6 ml'-1)
Colletotrichum truncatum [6] = test: Fungicidal activity against Colletotrichum capsici assessed as sporulation at 10 ug/ml incubated 16 hr photoperiod for 20 days by haemocytometer (reference value: 0.081 x 10^6 ml'-1)
Colletotrichum truncatum [7] = test: Fungicidal activity against Colletotrichum capsici infected chilli plant assessed as percent disease index at 0.025% applied as spray on day 10 post inoculation and twice every 20 days measured on day 155 post sowing in green house conditions (reference value: 62.5 to 68.6%)
Colletotrichum truncatum [8] = test: Fungicidal activity against Colletotrichum capsici infected chilli plant assessed as fruit length at 0.05% applied as spray on day 10 post inoculation and twice every 20 days measured on day 155 post sowing in green house conditions (reference value: 6.8 to 7 cm)
Colletotrichum truncatum [9] = test: Fungicidal activity against Colletotrichum capsici assessed as linear growth at 5 ug/ml incubated 16 hr photoperiod for 20 days (reference value: 90 mm)
Colletotrichum truncatum [10] = test: Fungicidal activity against Colletotrichum capsici assessed as linear growth at 25 ug/ml incubated 16 hr photoperiod for 20 days (reference value: 90 mm)
Colletotrichum truncatum [11] = test: Fungicidal activity against Colletotrichum capsici assessed as linear growth at 10 ug/ml incubated 16 hr photoperiod for 20 days (reference value: 90 mm)
Colletotrichum truncatum [12] = test: Fungicidal activity against Colletotrichum capsici assessed as spore germination at 50 ug/ml after 48 to 96 hr (reference value: 70.2 CFU)
Colletotrichum truncatum [13] = test: Fungicidal activity against Colletotrichum capsici assessed as inhibition of mycelial growth; settings: Colletotrichum truncatum; read-out: ED50 (the source's name)
Colletotrichum truncatum [14] = test: Fungicidal activity against Colletotrichum capsici assessed as reduction of polygalacturonase trans-eliminase production at 1 ug/ml incubated for 10 days measured up to 120 min by Ostwald-Fenske viscometric analysis (reference value: 40.8%); set-up: scale not given: the % may be the effect or the level left
Colletotrichum truncatum [15] = test: Fungicidal activity against Colletotrichum capsici assessed as spore germination at 10 ug/ml after 48 to 96 hr (reference value: 70.2 CFU)
Colletotrichum truncatum [16] = test: Fungicidal activity against Colletotrichum capsici assessed as inhibition of spore germination at 0.1 ug/ml after 48 to 96 hr relative to control
Colletotrichum truncatum [17] = test: Fungicidal activity against Colletotrichum capsici assessed as spore germination at 1 ug/ml after 48 to 96 hr (reference value: 70.2 CFU)
Colletotrichum truncatum [18] = test: Fungicidal activity against Colletotrichum capsici infected chilli plant assessed as fruit yield measured per plot at 0.05% applied as spray on day 10 post inoculation and twice every 20 days measured on day 155 post sowing in field conditions (reference value: 8.25 to 9.3 kg)
Colletotrichum truncatum [19] = test: Fungicidal activity against Colletotrichum capsici infected chilli plant assessed as fruit length at 0.025% applied as spray on day 10 post inoculation and twice every 20 days measured on day 155 post sowing in green house conditions (reference value: 6.8 to 7 cm)
Colletotrichum truncatum [20] = test: Fungicidal activity against Colletotrichum capsici infected chilli plant assessed as percent disease index at 0.05% applied as spray on day 10 post inoculation and twice every 20 days measured on day 155 post sowing in field conditions (reference value: 51 to 56.5%)
Colletotrichum truncatum [21] = test: Fungicidal activity against Colletotrichum capsici assessed as spore germination at 0.5 ug/ml after 48 to 96 hr (reference value: 70.2 CFU)
Colletotrichum truncatum [22] = test: Fungicidal activity against Colletotrichum capsici infected chilli plant assessed as fruit mass measured per pot at 0.025% applied as spray on day 10 post inoculation and twice every 20 days measured on day 155 post sowing in green house conditions (reference value: 85.3 to 94.5 g)
Colletotrichum truncatum [23] = test: Fungicidal activity against Colletotrichum capsici infected chilli plant assessed as fruit mass measured per pot at 0.05% applied as spray on day 10 post inoculation and twice every 20 days measured on day 155 post sowing in green house conditions (reference value: 85.3 to 94.5 g)
Colletotrichum truncatum [24] = test: Fungicidal activity against Colletotrichum capsici assessed as mycelial biomass at 5 ug/ml incubated 16 hr photoperiod for 20 days (reference value: 675 mg)
Colletotrichum truncatum [25] = test: Fungicidal activity against Colletotrichum capsici assessed as linear growth at 1 ug/ml incubated 16 hr photoperiod for 20 days (reference value: 90 mm)
Colletotrichum truncatum [26] = test: Fungicidal activity against Colletotrichum capsici assessed as sporulation at 0.5 ug/ml incubated 16 hr photoperiod for 20 days by haemocytometer (reference value: 0.081 x 10^6 ml'-1)
Colletotrichum truncatum [27] = test: Fungicidal activity against Colletotrichum capsici infected chilli plant assessed as fruit length measured per plot at 0.025% applied as spray on day 10 post inoculation and twice every 20 days measured on day 155 post sowing in field conditions (reference value: 8 to 8.7 cm)
Colletotrichum truncatum [28] = test: Fungicidal activity against Colletotrichum capsici assessed as reduction of polygalacturonase production at 1 ug/ml incubated for 10 days measured up to 120 min by Ostwald-Fenske viscometric analysis (reference value: 45.3%); set-up: scale not given: the % may be the effect or the level left
Colletotrichum truncatum [29] = test: Fungicidal activity against Colletotrichum capsici infected chilli plant assessed as fruit length measured per plot at 0.05% applied as spray on day 10 post inoculation and twice every 20 days measured on day 155 post sowing in field conditions (reference value: 8 to 8.7 cm)
Colletotrichum truncatum [30] = test: Fungicidal activity against Colletotrichum capsici assessed as mycelial biomass at 25 ug/ml incubated 16 hr photoperiod for 20 days (reference value: 675 mg)
Colletotrichum truncatum [31] = test: Fungicidal activity against Colletotrichum capsici assessed as linear growth at 0.1 ug/ml incubated 16 hr photoperiod for 20 days (reference value: 90 mm)
Colletotrichum truncatum [32] = test: Fungicidal activity against Colletotrichum capsici assessed as spore germination at 25 ug/ml after 48 to 96 hr (reference value: 70.2 CFU)
Colletotrichum truncatum [33] = test: Fungicidal activity against Colletotrichum capsici assessed as reduction of pectin trans-eliminase production at 1 ug/ml incubated for 10 days measured up to 120 min by Ostwald-Fenske viscometric analysis (reference value: 38.5%); set-up: scale not given: the % may be the effect or the level left
Colletotrichum truncatum [34] = test: Fungicidal activity against Colletotrichum capsici assessed as sporulation at 1 ug/ml incubated 16 hr photoperiod for 20 days by haemocytometer (reference value: 0.081 x 10^6 ml'-1)

## CCCC1COC(Cn2cncn2)(c2ccc(Cl)cc2Cl)O1 (stereo not drawn) [PROPICONAZOLE]
Colletotrichum truncatum [1]
  Activity: 39.2 mm
Colletotrichum truncatum [2]
  Activity: 0 ×10⁶ /ml
Colletotrichum truncatum [3]
  PDI: 25.7%
Colletotrichum truncatum [4]
  Activity: 0 ×10⁶ /ml
Colletotrichum truncatum [5]
  Activity: 0 ×10⁶ /ml
Colletotrichum truncatum [6]
  Activity: 0 ×10⁶ /ml
Colletotrichum truncatum [7]
  PDI: 33%
Colletotrichum truncatum [8]
  Activity: 7.8 cm
Colletotrichum truncatum [9]
  Activity: 12.61 mm
Colletotrichum truncatum [10]
  Activity: 9 mm
Colletotrichum truncatum [11]
  Activity: 9 mm
Colletotrichum truncatum [12]
  CFU: 0
Colletotrichum truncatum [13]
  EC50: 0.19 µg/mL (≈ 0.555 µM)
Colletotrichum truncatum [14]
  Activity: 8.5%
Colletotrichum truncatum [15]
  CFU: 0
Colletotrichum truncatum [16]
  inhibition at 0.1 µg/mL: 62%
Colletotrichum truncatum [17]
  CFU: 3.3
Colletotrichum truncatum [18]
  Crop_yield: 13.1 kg
Colletotrichum truncatum [19]
  Activity: 7.1 cm
Colletotrichum truncatum [20]
  PDI: 20.5%
Colletotrichum truncatum [21]
  CFU: 15.5
Colletotrichum truncatum [22]
  Crop_yield: 112.8 g
Colletotrichum truncatum [23]
  Crop_yield: 130 g
Colletotrichum truncatum [24]
  Activity: 53 mg
Colletotrichum truncatum [25]
  Activity: 20.5 mm
Colletotrichum truncatum [26]
  Activity: 1.3 ×10⁶ /ml
Colletotrichum truncatum [27]
  Activity: 8.5 cm
Colletotrichum truncatum [28]
  Activity: 9.2%
Colletotrichum truncatum [29]
  Activity: 9.2 cm
Colletotrichum truncatum [30]
  Activity: 0 mg
Colletotrichum truncatum [31]
  Activity: 55.3 mm
Colletotrichum truncatum [32]
  CFU: 0
Colletotrichum truncatum [33]
  Activity: 12%
Colletotrichum truncatum [34]
  Activity: 0.33 ×10⁶ /ml

## CC1COC(Cn2cncn2)(c2ccc(Oc3ccc(Cl)cc3)cc2Cl)O1 (stereo not drawn) [DIFENOCONAZOLE]
Colletotrichum truncatum [1]
  Activity: 48.5 mm
Colletotrichum truncatum [2]
  Activity: 0 ×10⁶ /ml
Colletotrichum truncatum [3]
  PDI: 22.2%
Colletotrichum truncatum [4]
  Activity: 0 ×10⁶ /ml
Colletotrichum truncatum [5]
  Activity: 0.37 ×10⁶ /ml
Colletotrichum truncatum [6]
  Activity: 0 ×10⁶ /ml
Colletotrichum truncatum [7]
  PDI: 34.5%
Colletotrichum truncatum [8]
  Activity: 7.5 cm
Colletotrichum truncatum [9]
  Activity: 27.4 mm
Colletotrichum truncatum [10]
  Activity: 9 mm
Colletotrichum truncatum [11]
  Activity: 18.5 mm
Colletotrichum truncatum [12]
  CFU: 0
Colletotrichum truncatum [13]
  EC50: 0.15 µg/mL (≈ 0.369 µM)
Colletotrichum truncatum [14]
  Activity: 12.5%
Colletotrichum truncatum [15]
  CFU: 0
Colletotrichum truncatum [16]
  inhibition at 0.1 µg/mL: 40%
Colletotrichum truncatum [17]
  CFU: 7.8
Colletotrichum truncatum [18]
  Crop_yield: 12.34 kg
Colletotrichum truncatum [19]
  Activity: 7 cm
Colletotrichum truncatum [20]
  PDI: 22%
Colletotrichum truncatum [21]
  CFU: 22.4
Colletotrichum truncatum [22]
  Crop_yield: 100.6 g
Colletotrichum truncatum [23]
  Crop_yield: 140.5 g
Colletotrichum truncatum [24]
  Activity: 118 mg
Colletotrichum truncatum [25]
  Activity: 39.3 mm
Colletotrichum truncatum [26]
  Activity: 2.25 ×10⁶ /ml
Colletotrichum truncatum [27]
  Activity: 8.2 cm
Colletotrichum truncatum [28]
  Activity: 12%
Colletotrichum truncatum [29]
  Activity: 9.2 cm
Colletotrichum truncatum [30]
  Activity: 0 mg
Colletotrichum truncatum [31]
  Activity: 73.5 mm
Colletotrichum truncatum [32]
  CFU: 0
Colletotrichum truncatum [33]
  Activity: 15.6%
Colletotrichum truncatum [34]
  Activity: 1.02 ×10⁶ /ml
